Data reported in patent US20020026053A1, “Novel 3-(substituted) -2- indolinones compounds and use thereof as inhibitors of protein kinase activity” (priority 1997, published 2002).

Biological target: T1, EGFR (Homo sapiens, UniProt P00533)
T1 construct: endogenous in cells; host or cells: A431 cells (lysate, captured with SUMO1 anti-EGFR antibody)
Test: Biochemical EGFR Assay
Design: concentration or dose not given beside the values
Conditions: protocol P.167
Procedure, shortened: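 Readout is ABTS absorbance at 410 nm after anti-phosphotyrosine and HRP-antibody detection of EGFR autophosphorylation. The kinase was immunocaptured from A431 lysate, exposed 30 min to test compound diluted 1:10 in TBS, then phosphorylated for 5 min with ATP/MnCl2 before an EDTA stop.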

T1 sequence (P00533 25-1210): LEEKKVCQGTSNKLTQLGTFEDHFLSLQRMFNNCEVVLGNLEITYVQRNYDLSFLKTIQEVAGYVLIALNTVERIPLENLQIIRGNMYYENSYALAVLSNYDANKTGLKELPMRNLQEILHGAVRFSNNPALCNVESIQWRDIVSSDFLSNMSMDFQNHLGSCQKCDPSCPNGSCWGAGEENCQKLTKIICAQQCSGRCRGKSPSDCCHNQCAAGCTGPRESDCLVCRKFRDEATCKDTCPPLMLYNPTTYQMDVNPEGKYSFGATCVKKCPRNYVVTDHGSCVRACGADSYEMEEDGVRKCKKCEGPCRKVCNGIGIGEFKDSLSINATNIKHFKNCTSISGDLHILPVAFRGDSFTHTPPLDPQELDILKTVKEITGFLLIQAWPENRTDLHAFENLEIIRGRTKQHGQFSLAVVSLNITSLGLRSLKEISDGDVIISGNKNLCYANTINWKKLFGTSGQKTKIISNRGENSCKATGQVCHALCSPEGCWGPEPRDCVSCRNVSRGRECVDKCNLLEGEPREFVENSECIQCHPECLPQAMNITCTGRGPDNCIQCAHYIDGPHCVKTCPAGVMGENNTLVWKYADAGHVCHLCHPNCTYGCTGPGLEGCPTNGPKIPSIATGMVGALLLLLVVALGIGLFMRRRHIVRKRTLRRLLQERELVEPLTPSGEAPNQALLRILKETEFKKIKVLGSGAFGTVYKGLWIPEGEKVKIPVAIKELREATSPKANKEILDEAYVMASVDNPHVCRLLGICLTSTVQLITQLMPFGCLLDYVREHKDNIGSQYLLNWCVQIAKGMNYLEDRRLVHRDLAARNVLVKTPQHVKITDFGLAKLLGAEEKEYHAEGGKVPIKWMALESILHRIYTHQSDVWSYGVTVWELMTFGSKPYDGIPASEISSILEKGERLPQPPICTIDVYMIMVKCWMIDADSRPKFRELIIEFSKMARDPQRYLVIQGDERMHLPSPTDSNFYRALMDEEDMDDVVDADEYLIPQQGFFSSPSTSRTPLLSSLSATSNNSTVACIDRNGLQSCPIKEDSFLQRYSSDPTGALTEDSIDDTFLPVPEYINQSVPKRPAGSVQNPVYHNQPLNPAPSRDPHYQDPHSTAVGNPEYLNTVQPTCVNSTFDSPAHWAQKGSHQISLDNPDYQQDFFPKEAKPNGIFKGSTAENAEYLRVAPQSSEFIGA

Cc1c(Br)cc(Br)c2c1C(=Cc1cccc(F)c1)C(=O)N2 [10736/H07]
Biochem EGFR % Inhibition (P.167): 52.2%

Cc1c(Br)cc(Br)c2c1C(=Cc1ccccc1F)C(=O)N2 [10736/H08]
Biochem EGFR % Inhibition (P.167): −20.2%

CCc1ccc(C=C2C(=O)Nc3c(Br)cc(Br)c(C)c32)cc1 [10736/H09]
Biochem EGFR % Inhibition (P.167): 35.7%

COc1cccc(C=C2C(=O)Nc3c(Br)cc(Br)c(C)c32)c1 [10736/H10]
Biochem EGFR % Inhibition (P.167): 45.6%

Cc1c(Br)cc(Br)c2c1C(=Cc1ccccc1Cl)C(=O)N2 [10736/H11]
Biochem EGFR % Inhibition (P.167): 11.1%

CCOc1ccc(C=C2C(=O)Nc3c(Br)cc(Br)cc32)cc1 [10737/A02]
Biochem EGFR % Inhibition (P.167): 37.3%

Cc1ccc(C=C2C(=O)Nc3c(Br)cc(Br)cc32)c(C)c1 [10737/A03]
Biochem EGFR % Inhibition (P.167): 12.8%

O=C1Nc2c(Br)cc(Br)cc2C1=Cc1cc(F)ccc1F [10737/A04]
Biochem EGFR % Inhibition (P.167): 29.4%

O=C1Nc2c(Br)cc(Br)cc2C1=Cc1cccc(F)c1F [10737/A05]
Biochem EGFR % Inhibition (P.167): 26.4%

COc1ccc(C=C2C(=O)Nc3c(Br)cc(Br)cc32)cc1F [10737/A06]
Biochem EGFR % Inhibition (P.167): 37.3%

Cc1ccc(C)c(C=C2C(=O)Nc3c(Br)cc(Br)cc32)c1 [10737/A07]
Biochem EGFR % Inhibition (P.167): 25.3%

O=C1Nc2c(Br)cc(Br)cc2C1=Cc1ccc2ccccc2c1 [10737/A08]
Biochem EGFR % Inhibition (P.167): 35.8%

O=C1Nc2c(Br)cc(Br)cc2C1=Cc1ccc(Oc2ccccc2)cc1 [10737/A09]
Biochem EGFR % Inhibition (P.167): 36.0%

CC(C)(C)c1ccc(Oc2cccc(C=C3C(=O)Nc4c(Br)cc(Br)cc43)c2)cc1 [10737/A10]
Biochem EGFR % Inhibition (P.167): 10.9%

O=C1Nc2c(Br)cc(Br)cc2C1=Cc1cccc(Oc2cccc(C(F)(F)F)c2)c1 [10737/A11]
Biochem EGFR % Inhibition (P.167): 10.8%

CCOc1ccc(C=C2C(=O)Nc3ccc(I)cc32)cc1 [10737/B02]
Biochem EGFR % Inhibition (P.167): −34.0%

Cc1ccc(C=C2C(=O)Nc3ccc(I)cc32)c(C)c1 [10737/B03]
Biochem EGFR % Inhibition (P.167): −34.9%

O=C1Nc2ccc(I)cc2C1=Cc1cc(F)ccc1F [10737/B04]
Biochem EGFR % Inhibition (P.167): 7.1%

O=C1Nc2ccc(I)cc2C1=Cc1cccc(F)c1F [10737/B05]
Biochem EGFR % Inhibition (P.167): 17.4%

COc1ccc(C=C2C(=O)Nc3ccc(I)cc32)cc1F [10737/B06]
Biochem EGFR % Inhibition (P.167): 22.5%

Cc1ccc(C)c(C=C2C(=O)Nc3ccc(I)cc32)c1 [10737/B07]
Biochem EGFR % Inhibition (P.167): 18.1%

O=C1Nc2ccc(I)cc2C1=Cc1ccc2ccccc2c1 [10737/B08]
Biochem EGFR % Inhibition (P.167): 15.4%

O=C1Nc2ccc(I)cc2C1=Cc1ccc(Oc2ccccc2)cc1 [10737/B09]
Biochem EGFR % Inhibition (P.167): 26.4%

CC(C)(C)c1ccc(Oc2cccc(C=C3C(=O)Nc4ccc(I)cc43)c2)cc1 [10737/B10]
Biochem EGFR % Inhibition (P.167): −7.3%

O=C1Nc2ccc(I)cc2C1=Cc1cccc(Oc2cccc(C(F)(F)F)c2)c1 [10737/B11]
Biochem EGFR % Inhibition (P.167): −9.9%

CCOc1ccc(C=C2C(=O)Nc3ccc(Br)c(C)c32)cc1 [10737/C02]
Biochem EGFR % Inhibition (P.167): −22.0%

Cc1ccc(C=C2C(=O)Nc3ccc(Br)c(C)c32)c(C)c1 [10737/C03]
Biochem EGFR % Inhibition (P.167): −0.7%

Cc1c(Br)ccc2c1C(=Cc1cc(F)ccc1F)C(=O)N2 [10737/C04]
Biochem EGFR % Inhibition (P.167): 14.4%

Cc1c(Br)ccc2c1C(=Cc1cccc(F)c1F)C(=O)N2 [10737/C05]
Biochem EGFR % Inhibition (P.167): 13.3%

COc1ccc(C=C2C(=O)Nc3ccc(Br)c(C)c32)cc1F [10737/C06]
Biochem EGFR % Inhibition (P.167): 29.0%

Cc1ccc(C)c(C=C2C(=O)Nc3ccc(Br)c(C)c32)c1 [10737/C07]
Biochem EGFR % Inhibition (P.167): 27.9%

Cc1c(Br)ccc2c1C(=Cc1ccc3ccccc3c1)C(=O)N2 [10737/C08]
Biochem EGFR % Inhibition (P.167): 16.3%

Cc1c(Br)ccc2c1C(=Cc1ccc(Oc3ccccc3)cc1)C(=O)N2 [10737/C09]
Biochem EGFR % Inhibition (P.167): 13.0%

Cc1c(Br)ccc2c1C(=Cc1cccc(Oc3ccc(C(C)(C)C)cc3)c1)C(=O)N2 [10737/C10]
Biochem EGFR % Inhibition (P.167): −15.6%

Cc1c(Br)ccc2c1C(=Cc1cccc(Oc3cccc(C(F)(F)F)c3)c1)C(=O)N2 [10737/C11]
Biochem EGFR % Inhibition (P.167): −5.6%

CCOc1ccc(C=C2C(=O)Nc3ccc(S(=O)(=O)NC)cc32)cc1 [10737/D02]
Biochem EGFR % Inhibition (P.167): −14.7%

CNS(=O)(=O)c1ccc2c(c1)C(=Cc1ccc(C)cc1C)C(=O)N2 [10737/D03]
Biochem EGFR % Inhibition (P.167): −21.5%

CNS(=O)(=O)c1ccc2c(c1)C(=Cc1cc(F)ccc1F)C(=O)N2 [10737/D04]
Biochem EGFR % Inhibition (P.167): −27.7%

CNS(=O)(=O)c1ccc2c(c1)C(=Cc1cccc(F)c1F)C(=O)N2 [10737/D05]
Biochem EGFR % Inhibition (P.167): 17.9%

CNS(=O)(=O)c1ccc2c(c1)C(=Cc1ccc(OC)c(F)c1)C(=O)N2 [10737/D06]
Biochem EGFR % Inhibition (P.167): 33.8%

CNS(=O)(=O)c1ccc2c(c1)C(=Cc1cc(C)ccc1C)C(=O)N2 [10737/D07]
Biochem EGFR % Inhibition (P.167): 16.1%

CNS(=O)(=O)c1ccc2c(c1)C(=Cc1ccc3ccccc3c1)C(=O)N2 [10737/D08]
Biochem EGFR % Inhibition (P.167): 5.6%

CNS(=O)(=O)c1ccc2c(c1)C(=Cc1ccc(Oc3ccccc3)cc1)C(=O)N2 [10737/D09]
Biochem EGFR % Inhibition (P.167): 13.7%

CNS(=O)(=O)c1ccc2c(c1)C(=Cc1cccc(Oc3ccc(C(C)(C)C)cc3)c1)C(=O)N2 [10737/D10]
Biochem EGFR % Inhibition (P.167): −15.0%

CNS(=O)(=O)c1ccc2c(c1)C(=Cc1cccc(Oc3cccc(C(F)(F)F)c3)c1)C(=O)N2 [10737/D11]
Biochem EGFR % Inhibition (P.167): −2.3%

CCOc1ccc(C=C2C(=O)Nc3ccc(S(=O)(=O)Nc4ccc(C(F)(F)F)cc4)cc32)cc1 [10737/E02]
Biochem EGFR % Inhibition (P.167): 6.7%

Cc1ccc(C=C2C(=O)Nc3ccc(S(=O)(=O)Nc4ccc(C(F)(F)F)cc4)cc32)c(C)c1 [10737/E03]
Biochem EGFR % Inhibition (P.167): −4.5%

O=C1Nc2ccc(S(=O)(=O)Nc3ccc(C(F)(F)F)cc3)cc2C1=Cc1cc(F)ccc1F [10737/E04]
Biochem EGFR % Inhibition (P.167): 15.4%

O=C1Nc2ccc(S(=O)(=O)Nc3ccc(C(F)(F)F)cc3)cc2C1=Cc1cccc(F)c1F [10737/E05]
Biochem EGFR % Inhibition (P.167): −8.6%

COc1ccc(C=C2C(=O)Nc3ccc(S(=O)(=O)Nc4ccc(C(F)(F)F)cc4)cc32)cc1F [10737/E06]
Biochem EGFR % Inhibition (P.167): −14.1%

Cc1ccc(C)c(C=C2C(=O)Nc3ccc(S(=O)(=O)Nc4ccc(C(F)(F)F)cc4)cc32)c1 [10737/E07]
Biochem EGFR % Inhibition (P.167): −12.3%

O=C1Nc2ccc(S(=O)(=O)Nc3ccc(C(F)(F)F)cc3)cc2C1=Cc1ccc2ccccc2c1 [10737/E08]
Biochem EGFR % Inhibition (P.167): −7.8%

O=C1Nc2ccc(S(=O)(=O)Nc3ccc(C(F)(F)F)cc3)cc2C1=Cc1ccc(Oc2ccccc2)cc1 [10737/E09]
Biochem EGFR % Inhibition (P.167): −0.7%

CC(C)(C)c1ccc(Oc2cccc(C=C3C(=O)Nc4ccc(S(=O)(=O)Nc5ccc(C(F)(F)F)cc5)cc43)c2)cc1 [10737/E10]
Biochem EGFR % Inhibition (P.167): −4.2%

O=C1Nc2ccc(S(=O)(=O)Nc3ccc(C(F)(F)F)cc3)cc2C1=Cc1cccc(Oc2cccc(C(F)(F)F)c2)c1 [10737/E11]
Biochem EGFR % Inhibition (P.167): −33.4%

CCOc1ccc(C=C2C(=O)Nc3ccc(S(=O)(=O)N4CCOCC4)cc32)cc1 [10737/F02]
Biochem EGFR % Inhibition (P.167): 21.4%

Cc1ccc(C=C2C(=O)Nc3ccc(S(=O)(=O)N4CCOCC4)cc32)c(C)c1 [10737/F03]
Biochem EGFR % Inhibition (P.167): −3.1%

O=C1Nc2ccc(S(=O)(=O)N3CCOCC3)cc2C1=Cc1cc(F)ccc1F [10737/F04]
Biochem EGFR % Inhibition (P.167): −23.3%

O=C1Nc2ccc(S(=O)(=O)N3CCOCC3)cc2C1=Cc1cccc(F)c1F [10737/F05]
Biochem EGFR % Inhibition (P.167): −24.0%

COc1ccc(C=C2C(=O)Nc3ccc(S(=O)(=O)N4CCOCC4)cc32)cc1F [10737/F06]
Biochem EGFR % Inhibition (P.167): −13.7%

Cc1ccc(C)c(C=C2C(=O)Nc3ccc(S(=O)(=O)N4CCOCC4)cc32)c1 [10737/F07]
Biochem EGFR % Inhibition (P.167): −25.5%

O=C1Nc2ccc(S(=O)(=O)N3CCOCC3)cc2C1=Cc1ccc2ccccc2c1 [10737/F08]
Biochem EGFR % Inhibition (P.167): 28.3%

O=C1Nc2ccc(S(=O)(=O)N3CCOCC3)cc2C1=Cc1ccc(Oc2ccccc2)cc1 [10737/F09]
Biochem EGFR % Inhibition (P.167): 23.5%

CC(C)(C)c1ccc(Oc2cccc(C=C3C(=O)Nc4ccc(S(=O)(=O)N5CCOCC5)cc43)c2)cc1 [10737/F10]
Biochem EGFR % Inhibition (P.167): 14.6%

O=C1Nc2ccc(S(=O)(=O)N3CCOCC3)cc2C1=Cc1cccc(Oc2cccc(C(F)(F)F)c2)c1 [10737/F11]
Biochem EGFR % Inhibition (P.167): −0.7%

CCOc1ccc(C=C2C(=O)Nc3ccc(CCCl)cc32)cc1 [10737/G02]
Biochem EGFR % Inhibition (P.167): 12.4%

Cc1ccc(C=C2C(=O)Nc3ccc(CCCl)cc32)c(C)c1 [10737/G03]
Biochem EGFR % Inhibition (P.167): −0.5%

O=C1Nc2ccc(CCCl)cc2C1=Cc1cc(F)ccc1F [10737/G04]
Biochem EGFR % Inhibition (P.167): −19.3%

O=C1Nc2ccc(CCCl)cc2C1=Cc1cccc(F)c1F [10737/G05]
Biochem EGFR % Inhibition (P.167): −41.4%

COc1ccc(C=C2C(=O)Nc3ccc(CCCl)cc32)cc1F [10737/G06]
Biochem EGFR % Inhibition (P.167): −43.4%

Cc1ccc(C)c(C=C2C(=O)Nc3ccc(CCCl)cc32)c1 [10737/G07]
Biochem EGFR % Inhibition (P.167): −25.0%

O=C1Nc2ccc(CCCl)cc2C1=Cc1ccc2ccccc2c1 [10737/G08]
Biochem EGFR % Inhibition (P.167): 30.8%

O=C1Nc2ccc(CCCl)cc2C1=Cc1ccc(Oc2ccccc2)cc1 [10737/G09]
Biochem EGFR % Inhibition (P.167): 23.6%

CC(C)(C)c1ccc(Oc2cccc(C=C3C(=O)Nc4ccc(CCCl)cc43)c2)cc1 [10737/G10]
Biochem EGFR % Inhibition (P.167): 17.2%

O=C1Nc2ccc(CCCl)cc2C1=Cc1cccc(Oc2cccc(C(F)(F)F)c2)c1 [10737/G11]
Biochem EGFR % Inhibition (P.167): 2.8%

CCOc1ccc(C=C2C(=O)Nc3c(Br)cc(Br)c(C)c32)cc1 [10737/H02]
Biochem EGFR % Inhibition (P.167): −17.2%
